These results are taken from US20250325469A1, “Inhibitors of atp synthase - cosmetic and therapeutic uses” (priority 2021, published 2025).

Test [1] addresses T1, F1F0 ATP hydrolysis (Bos taurus, UniProt P00829+P19483).
T1 construct: IF1 protein depleted Sub-Mitochondrial Particles (SMPs) from Bos taurus; from tissue; host or cells: sub-mitochondrial particles from Bos taurus, endogenous IF1 removed
The following applies: cited from earlier work; for IC50: IF1 protein depleted SMPs from Bos taurus, pH 6.7, 37° C. [142].

The test system of test [2] is F1F0 ATP hydrolysis. The following applies: [8, 109]; cited from earlier work.
Test [3] concerns cancer cell lines of the NCI-60 assay. Nature of the test: NCI one-dose (10 μM) NCI-60 testing. Type of test: cell-based. The following applies: for anti-cancer activity: NCI-60 anti-cancer testing in vitro; for inhibition at 10 µM: 1-dose testing. As to the method:
FIG. 1: Chiral supercritical fluid chromatography (SFC) was used to separate the shown racemate into its component R and S stereoisomers and two samples of opposite >97% enantiomeric excess (ee) was achieved: termed 8a and 8b respectively. 8a and 8b differ from 6a and 6b because they have methyl (Me, CH3), instead of hydrogen (H), upon their chiral carbon. 8a and 8b were independently tested in NCI one-dose (10 μM) testing: their results are shown in FIGS. (1B) and (1C) respectively.
(§1) (1E) 8a and 8b NCI one-dose (10 μM) test results side by side. % cancer growth inhibition >100 means there are less cancer cells at experiment end than beginning (i.e. cancer killing activity), =200=all cancer cells dead at experiment end. The observed pattern of 8a vs. 8b activity is hard to explain. One would expect one stereoisomer to have greater or equal activity than the other. […] Moreover, for one cancer cell line (NCI-H322M), 8a has no activity, yet 8b does.

The nature of test [4]: rectal temperature and activity of mice administered compound. The test is classed as in vivo, mouse. As to the method:
Hypoactivity of mouse, after being administered compound 6b, was because 6b caused the mouse's body temperature to drop towards its ambient temperature (22° C.). When ambient equals optimal body temperature (37° C.), 6b cannot reduce body temperature and cannot cause hypoactivity. In some embodiments, the hypoactivity/sedation aspect to a compound(s) of this disclosure is utilized for therapy. The intersection between drug dose and ambient temperature dictates how much the body temperature falls and thence the depth of the sedation. Larger drug dose, and/or lower ambient temperature, causes deeper sedation (e.g. useful for inducing anaesthesia, pre-anaesthesia, post-anaesthesia, hypoesthesia, sedation, coma, tranquilization, behavioural submission, muscle relaxation and/or treating/ameliorating/preventing/combating insomnia, fatal insomnia, sleep onset latency, delayed sleep phase disorder, exploding head syndrome, parasomnia, sleep-maintenance insomnia, sleep disorder etc.; repeated/continuous administration, e.g. repeated i.v. injections or continuous i.v. infusion, of a compound(s) of this disclosure can sedate a subject for an extended period of time). Smaller drug dose, and/or higher ambient temperature, causes lighter sedation (e.g. useful for anti-anxiety, anti-depression, hyperactivity etc.). At ambient≥optimal body temperature (37° C.), no sedation occurs. […]

For another test, the system named is A498. In words: NCI one-dose (10 μM) testing, A498. Type of test: cell-based. As to the method:
as §1

A further test has as its system NCI-H322M. In words: NCI one-dose (10 μM) testing, NCI-H322M. The test is classed as cell-based. On the procedure: as §1
Test [5] concerns cancer cell lines of the NCI-60 assay. In words: NCI-60 five-dose in vitro assay. The test is classed as cell-based. The following applies: at 10 μM in 5-dose testing. As to the method:
The present figure, herein, is a summary figure of that data (corresponding to FIG. 16K in the aforementioned Canadian application). Mean G150 for 8b and 8a is 3.09 and 2.85 μM respectively. […] In the 8a case, this GI50 is lower/better than 65% of 102 FDA approved cancer drugs in [112]. A salt of 8a. e.g. 8a HCl, is likely to have an even lower G150 in NCI five-dose testing.
The Pearson correlation coefficient between 8a activity in 1-dose (10 μM) and at 10 μM in 5-dose NCI-60 testing: R=0.4544 p=0.00034. The Pearson correlation coefficient between 8b activity in 1-dose (10 μM) and at 10 μM in 5-dose NCI-60 testing: R=0.6156, p<0.00001. […] So, this isn't unexpected. Not wishing to be bound by theory, in 5-dose NCI-60 testing, why 8a has a lower mean GI50 than 8b will now be explained. […] Except for the cancer cell lines that 8b exerted much more activity than 8a at in 1-dose testing, wherein the increased activity of 8a can't completely make up the deficit and overtake the activity of 8b.

For another test, the system named is MDA-MB-231/ATCC. In words: NCI one-dose (10 μM) testing, MDA-MB-231/ATCC. The test is classed as cell-based. On the procedure: as §1
Another test has as its system cells. To be noted: each attached to the cargo sequence by introduced cysteines and a disulphide bond; cited from earlier work.
The mark [6] stands for this setting: read-out: Mean % cancer growth inhibition.
[7] abbreviates: read-out: Median % cancer growth inhibition.

By IC50 is commonly meant the concentration at which inhibition is half-maximal. For the compound “1-56: Bos taurus IF1 protein fragment, residues 1-56 (GSESGDNVRSSAGAVRDAGGAFGKREQAEEERYFRARAKEQLAALKKHHENEISHH; UniProt P01096 26-81, looked up, fragment) [Compound 1-56]”, the IC50 in the test with F1F0 ATP hydrolysis [1] is 32 nM.
Regarding “1-60: Bos taurus IF1 protein fragment, residues 1-60 (GSESGDNVRSSAGAVRDAGGAFGKREQAEEERYFRARAKEQLAALKKHHENEISHHAKEI; UniProt P01096 26-85, looked up, fragment) [Compound 1-60]”, the IC50 with F1F0 ATP hydrolysis [1] is 19 nM.
“10-46: Bovine IF1 protein fragment, residues 10-46 (SSAGAVRDAGGAFGKREQAEEERYFRARAKEQLAALK; UniProt P01096 35-71, looked up, fragment) [Compound 10-46]”: in the test with F1F0 ATP hydrolysis [1] (bovine IF1 protein fragments, FIG. 10I legend [142, 144]), the inhibitory activity entry is listed as “ten-fold less activity than 10-47”.
With “10-47: Bos taurus IF1 protein fragment, residues 10-47, mature numbering (SSAGAVRDAGGAFGKREQAEEERYFRARAKEQLAALKK; UniProt P01096 35-72, looked up, fragment) [Compound 10-47]”, the IC50 with F1F0 ATP hydrolysis [1] was 45 nM.
Regarding `N#Cc1cccc(C(=O)/N=C(\Nc2ccc(Cl)cc2)N[C@@H](Cn2ccnc2)c2ccc(Cl)cc2Cl)c1` [Compound 6a], in the test with F1F0 ATP hydrolysis [2], the “ability to inhibit/reduce F1F0 ATP hydrolysis” value was “cannot”. For the same compound, the anti-cancer activity entry in test [3] is “anti-cancer activity”.
As to `N#Cc1cccc(C(=O)/N=C(\Nc2ccc(Cl)cc2)N[C@H](Cn2ccnc2)c2ccc(Cl)cc2Cl)c1` [Compound 6b], the rectal temperature entry in test [4] (ambient room temperature 22° C., dose dependent) is reported as “reduces its rectal temperature towards the ambient room temperature”. Moreover, in test [4] (ambient temperature 22° C.), the hypoactivity result was “hypoactivity”. Moreover, the “ability to inhibit/reduce F1F0 ATP hydrolysis” value with F1F0 ATP hydrolysis [2] is on record as “can potently inhibit/reduce F1F0 ATP hydrolysis”. Moreover, in [3], the anti-cancer activity result is given as “anti-cancer activity”.
For `[2H][C@@](Cn1ccnc1)(N/C(=N/C(=O)c1cccc(C#N)c1)Nc1ccc(Cl)cc1)c1ccc(Cl)cc1Cl` [Compound 7a], the anti-cancer activity result in test [3] was “less anti-cancer activity than 6a”.
In general, inhibition refers to the relative decrease from the control value, in per cent. Consider `C[C@@](Cn1ccnc1)(N/C(=N/C(=O)c1cccc(C#N)c1)Nc1ccc(Cl)cc1)c1ccc(Cl)cc1Cl` [Compound 8a], for which the “Δ % cancer growth inhibition, 8a greater than 8b” value in the test with A498 came out at 38.57. The anti-cancer activity result in the test on NCI-H322M was “no activity”. Moreover, the inhibition at 10 µM is 103% in test [5] (setting [6]), 95% in test [5] (setting [7]), 60.3% in test [3] (setting [6]) and 59.8% in [3] (setting [7]).
For `C[C@](Cn1ccnc1)(N/C(=N/C(=O)c1cccc(C#N)c1)Nc1ccc(Cl)cc1)c1ccc(Cl)cc1Cl` [Compound 8b], the anti-cancer activity entry is on record as “does” in the test on NCI-H322M and “greater anti-cancer activity than 8a” in [3]. Besides, the inhibition at 10 µM in test [5] (setting [6]) is 99.4%; in test [5] (setting [7]), 93%; in [3] (setting [6]), 76.5%; in test [3] (setting [7]) it was 77%. The “Δ % cancer growth inhibition, 8b greater than 8a” value with MDA-MB-231/ATCC is 85.34%.
“Bos taurus IF1 protein: Bos taurus IF1 protein recombinantly produced in E. Coli”: the IC50 with F1F0 ATP hydrolysis [1] was 34 nM.
Turning to “RRRRRRR (Cell Penetrating Peptide (CPP) sequence) [Compound R7, heptamer of L-arginine residues, cell penetrating peptide]”, the “cellular penetration compared with Tat or penetratin” value in the test on cells was “twice as good”.
